Source: patent US4794174A, “5'deoxy-5'-substituted adenosines” (Southern Research Institute, priority 1987, dated 1988)
Entries after “also recorded” stand apart in the source; their conditions may differ.

Key:
[1] = molecular target: T1, AdoMet-DC from MRC5 Cells (Homo sapiens, UniProt P17707); experiment: Effect of compounds on AdoMet-DC from MRC5 cells (crude enzyme preparation); assay type: biochemical; conditions: AdoMet 30 μM, read-out: ID50 (the source's name)
T1 construct: Effect of Compounds on AdoMet-DC from MRC5 Cells; endogenous in cells; host or cells: MRC5 cells (crude enzyme preparation)
T1 sequence (P17707 68-334 limits assumed): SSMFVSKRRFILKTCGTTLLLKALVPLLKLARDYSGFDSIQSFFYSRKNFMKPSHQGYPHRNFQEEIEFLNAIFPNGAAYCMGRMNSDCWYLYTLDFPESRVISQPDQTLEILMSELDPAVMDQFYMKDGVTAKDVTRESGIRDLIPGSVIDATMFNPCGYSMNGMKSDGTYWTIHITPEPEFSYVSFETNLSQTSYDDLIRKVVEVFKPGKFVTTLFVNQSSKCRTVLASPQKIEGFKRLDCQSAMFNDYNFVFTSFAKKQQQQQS
T1 sequence (P17707 1-67 limits assumed): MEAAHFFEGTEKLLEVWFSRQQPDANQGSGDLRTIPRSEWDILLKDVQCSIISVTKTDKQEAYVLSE
Method: Effect of Compounds on AdoMet-DC from MRC5 Cells
mixture contained AdoMet at a concentration of 30 μM. Each inhibitor
was tested at a series of concentrations.

L1210 Cells [2] = experiment: Cell number of L1210 cells treated with 25; assay type: cell-based; conditions: 96 hrs; +100 μM
Source text: (§1) Polyamine Levels in L1210 Cells Treated with --25.

L1210 Cells [3] = experiment: Polyamine levels in L1210 cells treated with 25; assay type: cell-based; conditions: for Polyamine Content, Putrescine / Polyamine Content, Spermidine / Polyamine Content, Spermine: +100 μM
Source text: as §1

HCMV = experiment: In vitro antiviral activity against cytomegalovirus: HCMV yields in MRC5 cell monolayer cultures; assay type: cell-based
Method: The Effects of --25 on HCMV Yields in MRC5
*Treatment with --25 began 72 hours prior to virus adsorption. Culture
fluids were replaced with fresh drug and medium 24 hours before virus
infection, immediately following virus infection, and 3 days p.i.

Structure (SMILES): CN(CCNC(=O)NN)C[C@H]1O[C@@H](n2cnc3c(N)ncnc32)[C@H](O)[C@@H]1O [Compound 16, 5'-Deoxy-5'-[N-methyl-N-[2-(hydrazinecarboxamido)ethyl]aminoadenosine, sesquisulfate dihydrate]
- IC50 [1]: 0.6 µM

Structure (SMILES): CN(CCCNC(=S)NN)C[C@H]1O[C@@H](n2cnc3c(N)ncnc32)[C@@H]2OC(C)(C)O[C@@H]21 [Compound 22, 2',3'-O-Methylethylidene-5'-deoxy-5'-[N-methyl-N-[3-(hydrazinethiocarboxamido)propyl]]aminoadenosine]
- IC50 [1]: 1.8 µM

Structure (SMILES): CN(CCCNN)C[C@H]1O[C@@H](n2cnc3c(N)ncnc32)[C@H](O)[C@@H]1O [Compound 25, 5'-Deoxy-5'-[N-methyl-N-(3-hydrazinopropyl)]aminoadenosine sesquisulfate 1.8H2 O.0.1EtOH]
- Cell Number × 10^-5 per mL (L1210 Cells [2]): 17 × 10^-5 per mL
- Polyamine Content, Putrescine (L1210 Cells [3]; 24 hrs): 3.16 umol/10^6 Cells
- Polyamine Content, Spermidine (L1210 Cells [3]; 24 hrs): 0.58 umol/10^6 Cells
- Polyamine Content, Spermine (L1210 Cells [3]; 24 hrs): 0.20 umol/10^6 Cells
- Polyamine Content, Putrescine (L1210 Cells [3]; 48 hrs): 4.91 umol/10^6 Cells
- Polyamine Content, Spermidine (L1210 Cells [3]; 48 hrs): 0.78 umol/10^6 Cells
- Polyamine Content, Spermine (L1210 Cells [3]; 48 hrs): 0.16 umol/10^6 Cells
- Polyamine Content, Putrescine (L1210 Cells [3]; 96 hrs): 5.69 umol/10^6 Cells
- Polyamine Content, Spermidine (L1210 Cells [3]; 96 hrs): 0.65 umol/10^6 Cells
- Polyamine Content, Spermine (L1210 Cells [3]; 96 hrs): 0.19 umol/10^6 Cells
- effect on spermidine, spermine and putrescine levels (L1210 Cells [3]; in words, Table 4): decrease in spermidine and spermine levels; also recorded: increase in putrescine levels
- CMV Yield (PFU/ml) (HCMV; 3.2 μM): 5.8 PFU/ml
- CMV Yield (log10 PFU/ml) (HCMV; 3.2 μM): 5.8 × 10^5 log10 PFU/ml
- CMV Yield (PFU/ml) (HCMV; 10 μM): 5.8 PFU/ml
- CMV Yield (log10 PFU/ml) (HCMV; 10 μM): 6.3 × 10^5 log10 PFU/ml
- CMV Yield (PFU/ml) (HCMV; 32 μM): 5.8 PFU/ml
- CMV Yield (log10 PFU/ml) (HCMV; 32 μM): 5.8 × 10^5 log10 PFU/ml
- CMV Yield (PFU/ml) (HCMV; 100 μM): 5.6 PFU/ml
- CMV Yield (log10 PFU/ml) (HCMV; 100 μM): 4.2 × 10^5 log10 PFU/ml
- CMV Yield (PFU/ml) (HCMV; 320 μM): 5.1 PFU/ml
- CMV Yield (log10 PFU/ml) (HCMV; 320 μM): 1.2 × 10^5 log10 PFU/ml
- CMV Yield (PFU/ml) (HCMV; 1000 μM): 2.2 PFU/ml
- CMV Yield (log10 PFU/ml) (HCMV; 1000 μM): 1.4 × 10^2 log10 PFU/ml
- inhibition at 10 µM (HCMV; Human betaherpesvirus 5, MRC5, 10 μM, read-out: Reduction (%) of CPE at Time of Virus Harvest): 0%
- inhibition at 100 µM (HCMV; Human betaherpesvirus 5, MRC5, 100 μM, read-out: Reduction (%) of CPE at Time of Virus Harvest): 0%
- inhibition at 320 µM (HCMV; Human betaherpesvirus 5, MRC5, 320 μM, read-out: Reduction (%) of CPE at Time of Virus Harvest): 0%
- IC50 [1]: 0.008 µM
